Reference: patent publication US20130071487A1, “XENON-BASED INHALABLE DRUG FOR PREVENTING ADDICTION RELAPSES IN HUMANS” (L'Air Liquide, Societe Anonyme pour l'Etude et …, priority 2010, published 2013)

What was measured:
[1] = system: stimuli-induced alcoholic relapse; experiment: Stimuli-induced alcoholic relapse model; format: in vivo, male Wistar rats; details: rat, 1 hour gas exposure 24 hours and 3 hours before the relapse test, FIG. 5
Method: Another animal model well-established in the literature was used to evaluate the anti-relapse effects of xenon, namely the stimuli-induced alcoholic relapse model.
This model is based on the fact that taking drugs or alcohol capable of leading to dependence is associated with a number of environmental stimuli (auditory, olfactory, visual) which are themselves likely to lead to a relapse.
Briefly, the experiments were carried out in conditioning chambers equipped with 2 levers allowing the distribution of water or of alcohol.
24 male Wistar rats were used. The animals are trained to self-administer ethanol at 10% by volume during the course of daily sessions lasting 30 minutes.
During the conditioning phase, the animals are trained to distinguish between the availability of alcohol and of water. Stimulus 1 (orange extract) is the signal for availability of alcohol and each pressing of lever No.1 results in conditioned stimulus No.1 (flashing light) and the immediate distribution of alcohol (30 μl). Furthermore, lever No.2 remains unused during the “alcohol sessions” throughout the experiment.
Stimulus n° 2 (anise extract) will give the signal for availability of water during the “water sessions” and each pressing of lever No.2 results in the presentation of conditioned stimulus No.2 (constant light) and the distribution of water (30 μl). […]

[2] = system: alcohol consumption after deprivation; experiment: Alcohol deprivation effect model (EAD); format: in vivo, male Wistar rats; details: rat; for effect on alcohol consumption after deprivation (consumption curve versus control) / difference in area under curve versus control group N2/O2: EAD model; for effect on alcohol consumption after deprivation (consumption curve versus control): 50%/50% gas/O2, FIG. 2 and FIG. 3; for difference in area under curve versus control group N2/O2: 50%/50% gas/O2, control 16.34±0.9 g/kg*day; for area under curve of total ethanol consumption: two 1 hour inhalation exposures to 50%/50% gas/O2 mixture, consumption measured daily for 6 post-abstinence days, control N2/O2 16.34±0.9
From the text: The alcohol deprivation model (EAD) comprises habituating the animals to consumption of alcohol for a period of 8 weeks, followed by a period of deprivation of 2 weeks, during which alcohol was withdrawn. This cycle is repeated 8 times. After a period of deprivation, access to alcohol causes a significant but temporary increase in alcohol consumption compared to the reference level. This model is ideal for studying behavior during relapse. It was validated with nacamprosate and naltrexone.
The following experimental protocol was followed.
16 male Wistar rats have free and continuous access to 2 feeding bottles, one containing tap water and the other containing 5%, 10% and 20% ethanol (vol./ vol.) in their cages.
The first two-week deprivation period is introduced after 8 weeks of continuously available alcohol, as illustrated in FIG. 1.
After this deprivation period, the rats will have access to alcohol and again to at least 2 more randomly introduced periods of deprivation.
All the animals are divided into 2 groups (8 rats/group) so that for the mean baseline (week 23), the total alcohol consumption will be essentially the same in each group.
On the last day of week 25 at about 9 am, […] animals are exposed to the Xe/O2 (50%/50%) gaseous mixture for 1 hour.
The control group is exposed to N2/O2 (50%/50%). The following day at 9 am all the animals are exposed for a second time to these same gaseous mixtures for 1 hour.
The exposures to the gaseous mixture are represented by two arrows in FIG. 2.
Following this last exposure, the bottles of alcohol will again be offered (post-abstinence days).
Following exposures to the different gases, the total consumption of ethanol (g/kg of body weight) is measured daily at about 10 am, for 6 days.

[3] = system: alcohol consumption following alcohol deprivation; details: alcohol-dependent rats; cited from earlier work

Row | SMILES | number of presses on the lever delivering the alcohol following exposure to stimulus-1, compared to control N2/O2 50%/50% [1] | effect on alcohol consumption after deprivation (consumption curve versus control) [2] | difference in area under curve versus control group N2/O2 [2] | area under curve of total ethanol consumption [2] | effect on increase in alcohol consumption following alcohol deprivation [3]
1 | [Xe] [xenon] | significant reduction | reduction in alcohol consumption | difference of two units | 14.28±1.3 g/kg*day | 
2 | CC(=O)NCCCS(=O)(=O)O [acamprosate] |  |  |  |  | a reduction was noted in detrimental effects
3 | [N-]=[N+]=O [N2O, nitrous oxide] | no significant effect | reduces this alcohol consumption to a much lesser extent | 1 | 15.34±1.3 g/kg*day | 
